Experimental findings from US11999697B2, “Methods and compositions for inhibition of dihydroorotate dehydrogenase” (OHIO STATE INNOVATION FOUNDATION, priority 2018, dated 2024) are described below.

Read-outs that look alike come from different tables or passages of the source.

For one series, the system named is OCI-AML3. As to the kind of experiment: MTS cell proliferation assay, OCI-AML3. It is filed as cell-based. Particulars: Homo sapiens. On the procedure: (§1) Triplicate wells were set up for each condition.
(§2) The assays were carried out in a blinded fashion.

For the next series, the system named is MOLM-13. Description: MTS cell proliferation assay, MOLM-13. It is filed as cell-based. Conditions: Homo sapiens, 96 hours. On the procedure:
as §1, §2

For another series, the system named is HL-60. As to the kind of experiment: MTS cell proliferation assay, HL-60. Particulars: Homo sapiens, 96 hours. It is filed as cell-based. On the procedure: as §1, §2
A further series relates to MV4-11. As to the kind of experiment: MTS cell proliferation assay, MV4-11. Conditions: for IC50: Homo sapiens, MV4-11, MTS. It is filed as cell-based.
The subject of a further series is THP1. As to the kind of experiment: MTS cell proliferation assay, THP1. Particulars: Homo sapiens, THP-1, 96 hours. It is filed as cell-based. On the procedure: as §1, §2
In a further series the target is T1, DHODH (Homo sapiens, UniProt Q02127).
T1 construct: made in house
T1 sequence (Q02127 whole entry): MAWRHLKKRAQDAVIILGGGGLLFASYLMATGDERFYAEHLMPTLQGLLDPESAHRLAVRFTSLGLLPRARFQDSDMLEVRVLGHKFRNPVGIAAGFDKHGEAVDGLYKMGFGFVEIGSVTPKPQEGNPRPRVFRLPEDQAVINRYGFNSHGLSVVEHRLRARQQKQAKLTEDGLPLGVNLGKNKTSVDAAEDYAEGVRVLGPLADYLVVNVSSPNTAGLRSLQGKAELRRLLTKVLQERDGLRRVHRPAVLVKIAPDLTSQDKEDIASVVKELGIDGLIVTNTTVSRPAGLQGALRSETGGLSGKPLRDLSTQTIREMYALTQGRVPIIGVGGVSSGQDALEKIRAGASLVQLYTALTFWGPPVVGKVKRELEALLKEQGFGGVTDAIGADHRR
Description: DHODH enzymatic assay (DCIP reduction). It is filed as biochemical. Conditions: for DHODH inhibition, % inhibition: compound concentration not given; for IC50: range in parentheses, read-out: DHODH inhibition, IC50. On the procedure:
DHODH Enzymatic Assay: DHODH activity was determined at 25° C. following the reduction of 2,6-dichloroindophenol sodium salt (DCIP) at 600 nm (ε=18 800 M^−1 cm^−1) on a spectrophotometer. The reaction medium used contained 50 mM Tris-HCl, pH 8.0, 0.1% Triton X-100, 0.1 mM LDHO, 0.025 mM CoQ1, and 0.06 mM DCIP. The reaction was started by addition of the enzyme. The inhibitory potency of the compounds was evaluated by measuring the initial velocity of the reaction either in the absence or in the presence of the compounds at the indicated concentrations. The DHODH enzyme used was the recombinant human enzyme prepared as previously described (Helene Munier-Lehmann, et al., J. Med. Chem. 2015, 58:860-877).

Where [1] appears, read: OCI-AML-3, 96 hours, read-out: IC50 (μM) at 96 hours, OCI-AML3.
Setting [2] is: 96 hours, read-out: IC50 (μM) at 96 hours, MV4-11.
Setting [3] is: OCI-AML-3, 96 hour, Table 6, read-out: 96 hour IC50 (nM) in OCI-AML-3 cell line.
[4] abbreviates: 96 hour, Table 7, read-out: 96 hour IC50 (nM) in MV-411 cell line.

In the case of `CC1=C(/C=C/C(C)=C/C=C/C(C)=C/C(=O)O)C(C)(C)CCC1` [ATRA, all-trans-retinoic acid, reference compound], the IC50 worked out at 0.09 µM with OCI-AML3 (setting [1]) and 3.06 µM with MOLM-13.

For the compound `Cc1c(-c2ccc(-c3ccccc3F)cc2)nc2ccc(F)cc2c1C(=O)O` [BQR•Na, reference compound], the IC50 in the series on OCI-AML3 (setting [1]) turned out to be 0.4 µM; with HL-60, 0.23 µM; with MOLM-13 it was 0.48 µM; with MV4-11 (setting [2]) it was 0.49 µM; in the series with THP1 it was 1 µM.

Regarding `Cc1c(-c2ccc(-c3ccccc3F)cc2)nc2ccc(F)cc2c1C(=O)O` [Brequinar, 6-fluoro-2-(2′-fluoro-1,1′-biphenyl-4-yl)-3-methyl-4-quinolinecarboxylic acid, reference compound], in the series with OCI-AML3 (setting [3]), the IC50 stood at 0.314 µM. For the same compound, the “rescue of cytotoxic effects by uridine” value in the series on MV4-11 (0.25 or 0.5 μM compound, uridine 0 to 200 μM, 96 hours) is on record as “rescued by growth in the presence of uridine”.

Regarding `COc1ccc(-c2ccc(-c3cc(C(=O)O)c4cc(Cl)ccc4n3)cc2)cc1` [Cpd5, 6-chloro-2-(4′-methoxy-[1,1′-biphenyl]-4-yl)quinoline-4-carboxylic acid], the IC50 in the series on OCI-AML3 (setting [1]) amounted to 3.37 µM; in the series with HL-60, 20.9 µM; in the series with MOLM-13, 3.02 µM; on DHODH, 0.099 µM; in the series on MV4-11 (setting [2]) it was 6.96 µM; in the series with THP1, 7.84 µM. The “DHODH inhibition, % inhibition” value at DHODH is given as 95%.

On to `O=C(O)c1cc(-c2ccc(-c3ccc(F)cc3)cc2)nc2ccc(Cl)cc12` [Cpd6, 6-chloro-2-(4′-fluoro-[1,1′-biphenyl]-4-yl)quinoline-4-carboxylic acid], for which the IC50 amounted to 6.25 µM with OCI-AML3 (setting [1]); 3 µM in the series with HL-60; 6.91 µM with MOLM-13; 0.076 µM on DHODH; 6.48 µM in the series on MV4-11 (setting [2]); 10.4 µM in the series on THP1. Moreover, the “DHODH inhibition, % inhibition” value at DHODH came out at 99%.

`COc1ccc(-c2ccc(-c3cc(C(=O)O)c4cccc(F)c4n3)cc2)cc1` [Cpd8, 8-fluoro-2-(4′-methoxy-[1,1′-biphenyl]-4-yl)quinoline-4-carboxylic acid]: the IC50 in the series on OCI-AML3 (setting [1]) is 4.99 µM; in the series on HL-60, 3.57 µM; in the series on MOLM-13, 6.76 µM; in the series with MV4-11 (setting [2]) it was 7.54 µM; in the series on THP1, 11.6 µM.

Turning to `Cc1c(-c2ccc(-c3ccc(F)cc3F)cc2)nc2c(F)cccc2c1C(=O)O` [Cpd14, 2-(2′,4′-difluoro-[1,1′-biphenyl]-4-yl)-8-fluoro-3-methylquinoline-4-carboxylic acid], the IC50 in the series on OCI-AML3 (setting [1]) came to 11.2 µM; with HL-60 it was 9.48 µM; in the series on MOLM-13, 8.63 µM; in the series with MV4-11 (setting [2]), 14 µM; in the series on THP1 it was 21.4 µM.

As to `CCOc1ccc(-c2ccc(-c3cc(C(=O)O)c4cccc(F)c4n3)cc2)cc1` [Cpd16, 2-(4′-ethoxy-[1,1′-biphenyl]-4-yl)-8-fluoroquinoline-4-carboxylic acid], the IC50 in the series with OCI-AML3 (setting [1]) was determined as 2.9 µM; in the series with HL-60, 1.69 µM; in the series with MOLM-13 it was 3.42 µM; with MV4-11 (setting [2]), 6.23 µM; in the series with THP1 it was 6.7 µM.

Regarding `O=C(O)c1cc(-c2ccc(-c3ccc(C(F)(F)F)cc3)cc2)nc2ccc(-c3ccc(F)cc3)cc12` [Cpd17, 6-(4-fluorophenyl)-2-(4′-(trifluoromethyl)-[1,1′-biphenyl]-4-yl)quinoline-4-carboxylic acid], the “DHODH inhibition, % inhibition” value at DHODH worked out at 8%.

Regarding `Cc1c(-c2ccc(-c3ccc(F)cc3)cc2)nc2ccc(F)cc2c1C(=O)O` [Cpd18, 6-fluoro-2-(4′-fluoro-[1,1′-biphenyl]-4-yl)-3-methylquinoline-4-carboxylic acid], the IC50 in the series with OCI-AML3 (setting [1]) amounted to 4.01 µM; in the series on HL-60, 2.4 µM; in the series on MOLM-13, 6.76 µM; in the series on MV4-11 (setting [2]) it was 6.86 µM; with THP1, 9.34 µM.

Consider `COc1ccc(-c2ccc(-c3cc(C(=O)O)c4cc(F)ccc4n3)cc2)cc1` [Cpd20, 6-fluoro-2-(4′-methoxy-[1,1′-biphenyl]-4-yl)quinoline-4-carboxylic acid], for which, in the series on MV4-11 (setting [4]), the IC50 is 0.69 µM.

Turning to `CCCOc1ccc(-c2ccc(-c3cc(C(=O)O)c4cc(F)ccc4n3)cc2)cc1` [Cpd21, 6-fluoro-2-(4′-propoxy-[1,1′-biphenyl]-4-yl)quinoline-4-carboxylic acid], in the series with MV4-11 (setting [4]), the IC50 came out at 0.06 µM.

Turning to `CCCCOc1ccc(-c2ccc(-c3cc(C(=O)O)c4cc(F)ccc4n3)cc2)cc1` [Cpd22, 2-(4′-butoxy-[1,1′-biphenyl]-4-yl)-6-fluoroquinoline-4-carboxylic acid], the IC50 in the series on OCI-AML3 (setting [3]) amounted to 0.155 µM; with MV4-11 (setting [4]), 0.036 µM.

For `CCCCCCCOc1ccc(-c2ccc(-c3cc(C(=O)O)c4cc(F)ccc4n3)cc2)cc1` [Cpd23, 6-fluoro-2-(4′-(heptyloxy)-[1,1′-biphenyl]-4-yl)quinoline-4-carboxylic acid], the results for the IC50 with OCI-AML3 (setting [3]) and in the series on MV4-11 (setting [4]) were 0.0906 µM and 0.018 µM, respectively.

As for `O=C(O)c1cc(-c2ccc(-c3ccccc3F)cc2)nc2ccc(F)cc12` [Cpd24, 6-fluoro-2-(2'-fluoro-[1,1′-biphenyl]-4-yl)quinoline-4-carboxylic acid], the concentration for half-maximal inhibition (IC50) in the series on OCI-AML3 (setting [3]) amounted to 0.0495 µM.

In the case of `CC(C)Oc1ccc(-c2ccc(-c3cc(C(=O)O)c4cc(F)ccc4n3)cc2)cc1` [Cpd25, 6-fluoro-2-(4′-isopropoxy-[1,1′-biphenyl]-4-yl)quinoline-4-carboxylic acid], the IC50 in the series on OCI-AML3 (setting [3]) turned out to be 0.0676 µM.

On to `CC(C)COc1ccc(-c2ccc(-c3cc(C(=O)O)c4cc(F)ccc4n3)cc2)cc1` [Cpd26, 6-fluoro-2-(4′-isobutoxy-[1,1′-biphenyl]-4-yl)quinoline-4-carboxylic acid], for which the IC50 in the series with OCI-AML3 (setting [3]) was 0.0893 µM.

In the case of `CCOc1ccccc1-c1ccc(-c2cc(C(=O)O)c3cc(F)ccc3n2)cc1` [Cpd27, 2-(2′-ethoxy-[1,1′-biphenyl]-4-yl)-6-fluoroquinoline-4-carboxylic acid], the IC50 in the series on OCI-AML3 (setting [3]) is 0.637 µM.

`CCOc1cccc(-c2ccc(-c3cc(C(=O)O)c4cc(F)ccc4n3)cc2)c1` [Cpd28, 2-(3′-ethoxy-[1,1′-biphenyl]-4-yl)-6-fluoroquinoline-4-carboxylic acid]: the IC50 in the series with OCI-AML3 (setting [3]) is 0.0209 µM.

As to `CCCCCOc1ccc(-c2ccc(-c3cc(C(=O)O)c4cc(F)ccc4n3)cc2)cc1` [Cpd29, 6-fluoro-2-(4′-(pentyloxy)-[1,1′-biphenyl]-4-yl)quinoline-4-carboxylic acid], the IC50 in the series with OCI-AML3 (setting [3]) is 0.0729 µM.

On to `CCCCCCOc1ccc(-c2ccc(-c3cc(C(=O)O)c4cc(F)ccc4n3)cc2)cc1` [Cpd30, 6-fluoro-2-(4′-(hexyloxy)-[1,1′-biphenyl]-4-yl)quinoline-4-carboxylic acid], for which, in the series with OCI-AML3 (setting [3]), the IC50 was 0.0761 µM.

For `CCCCCCCCOc1ccc(-c2ccc(-c3cc(C(=O)O)c4cc(F)ccc4n3)cc2)cc1` [Cpd31, 6-fluoro-2-(4′-(octyloxy)-[1,1′-biphenyl]-4-yl)quinoline-4-carboxylic acid], the IC50 in the series with OCI-AML3 (setting [3]) came to 0.175 µM.

Consider `CC(C)(C)Oc1ccc(-c2ccc(-c3cc(C(=O)O)c4cc(F)ccc4n3)cc2)cc1` [Cpd32, 2-(4′-(tert-butoxy)-[1,1′-biphenyl]-4-yl)-6-fluoroquinoline-4-carboxylic acid], for which the IC50 with OCI-AML3 (setting [3]) amounted to 0.0503 µM.

`CC(C)CCOc1ccc(-c2ccc(-c3cc(C(=O)O)c4cc(F)ccc4n3)cc2)cc1` [Cpd33, 6-fluoro-2-(4′-(isopentyloxy)-[1,1′-biphenyl]-4-yl)quinoline-4-carboxylic acid]: the IC50 with OCI-AML3 (setting [3]) came to 0.0746 µM.

Turning to `CCOc1ccc(-c2ccc(-c3cc(C(=O)O)c4cc(F)ccc4n3)cc2)c(F)c1` [Cpd35, 2-(4′-ethoxy-2′-fluoro-[1,1′-biphenyl]-4-yl)-6-fluoroquinoline-4-carboxylic acid], the IC50 in the series on OCI-AML3 (setting [3]) came to 0.0877 µM.

With `CCOc1ccc(-c2ccc(-c3cc(C(=O)O)c4cc(C(F)(F)F)ccc4n3)cc2)cc1` [Cpd36, 2-(4′-ethoxy-[1,1′-biphenyl]-4-yl)-6-(trifluoromethyl)quinoline-4-carboxylic acid], in the series with OCI-AML3 (setting [3]), the IC50 came out at 0.33 µM.

Regarding `COCc1cccc(-c2ccc(-c3cc(C(=O)O)c4cc(F)ccc4n3)cc2)c1` [Cpd37, 6-fluoro-2-(3′-(methoxymethyl)-[1,1′-biphenyl]-4-yl)quinoline-4-carboxylic acid], in the series on OCI-AML3 (setting [3]), the IC50 stood at 0.864 µM.

Regarding `COCc1ccc(-c2ccc(-c3cc(C(=O)O)c4cc(F)ccc4n3)cc2)cc1` [Cpd38, 6-fluoro-2-(4′-(methoxymethyl)-[1,1′-biphenyl]-4-yl)quinoline-4-carboxylic acid], the IC50 with OCI-AML3 (setting [3]) is 1.06 µM.

In the case of `COCc1ccccc1-c1ccc(-c2cc(C(=O)O)c3cc(F)ccc3n2)cc1` [Cpd39, 6-fluoro-2-(2'-(methoxymethyl)-[1,1′-biphenyl]-4-yl) quinoline-4-carboxylic acid], the IC50 in the series on OCI-AML3 (setting [3]) turned out to be 0.0964 µM.

Consider `O=C(O)c1cc(-c2ccc(-c3ccc(Oc4ccccc4)cc3)cc2)nc2ccc(F)cc12` [Cpd40, 6-fluoro-2-(4′-phenoxy-[1,1′-biphenyl]-4-yl)quinoline-4-carboxylic acid], for which, in the series on MV4-11 (setting [4]), the IC50 was found to be 0.067 µM.
